Test results as given in US8329420B2, “Screening method for a substance that binds to an intracellular region of TLR4” (Hiroshima University, priority 2006, dated 2012).

How the values were obtained:
[1] = target: T1, TLR4 (wild-type and point mutants, TLR4 C747A) (Homo sapiens, UniProt O00206, C747A); experiment: Binding of ^3H-compound A to FLAG-TLR4 wild-type and point mutants expressed in COS-7 cells (anti-FLAG immunoprecipitation, autoradiography); parameters: expressed in transfected cells; conditions: 100 nmol/L, 6 hr, COS-7 cells; only this mutant among 1CA-4CA, PH, 1KR-9KR (FIG. 2)
T1 sequence (O00206 24-839 C747A): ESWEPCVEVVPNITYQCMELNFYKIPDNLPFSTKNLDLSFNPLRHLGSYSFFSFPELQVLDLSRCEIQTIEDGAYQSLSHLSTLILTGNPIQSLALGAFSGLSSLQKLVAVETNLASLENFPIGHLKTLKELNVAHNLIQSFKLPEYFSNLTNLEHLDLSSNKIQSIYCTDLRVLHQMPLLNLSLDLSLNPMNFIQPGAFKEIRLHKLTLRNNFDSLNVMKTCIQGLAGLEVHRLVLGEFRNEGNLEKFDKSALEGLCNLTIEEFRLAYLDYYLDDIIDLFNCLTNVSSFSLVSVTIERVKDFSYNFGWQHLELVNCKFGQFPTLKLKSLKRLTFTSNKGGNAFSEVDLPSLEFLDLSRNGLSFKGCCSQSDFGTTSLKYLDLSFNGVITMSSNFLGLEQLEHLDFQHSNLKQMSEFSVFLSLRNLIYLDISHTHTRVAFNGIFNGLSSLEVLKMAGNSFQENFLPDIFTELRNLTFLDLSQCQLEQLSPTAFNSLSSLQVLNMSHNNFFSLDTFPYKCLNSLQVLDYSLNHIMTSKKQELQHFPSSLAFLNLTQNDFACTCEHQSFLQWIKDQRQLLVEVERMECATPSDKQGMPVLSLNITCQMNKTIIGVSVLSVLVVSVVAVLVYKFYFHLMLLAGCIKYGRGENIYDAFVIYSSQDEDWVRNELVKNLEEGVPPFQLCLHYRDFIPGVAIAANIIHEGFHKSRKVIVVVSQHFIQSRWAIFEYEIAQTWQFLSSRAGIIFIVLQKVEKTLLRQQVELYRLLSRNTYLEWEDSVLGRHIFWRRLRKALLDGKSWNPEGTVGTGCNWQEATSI
Source text: (§1) cDNA encoding TLR4 was obtained by a conventional method using PCR, and incorporated into expression vector pEFBos. Each point mutant was produced using QuikChange II Site-directed Mutagenesis Kit (manufactured by Stratagene). A mismatch corresponding to a mutation was introduced into both ends of a primer according to the manual of the kit. The produced primers are as follows (mutant introduction sites are underlined). Thereafter, a mutant was produced according to the manual and a competent cell was transformed therewith. Single colonies were picked up, a plasmid was prepared according to a conventional method and DNA sequence was confirmed to give a plasmid containing each mutant TLR4.
(§2) Escherichia coli was transformed with the produced plasmids, about 500-700 μg thereof was each purified using EndoFree (R) Plasmid Maxi Kit (Quiagen). […]
(§3) The immunoprecipitated was applied to SDS-PAGE to separate the protein, and the gel after migration was immersed in a blotting buffer for 15 min to remove SDS. […] The luminescence of the band was photographed on an X ray film, Kodak Biomax-MS, and the protein expression level was confirmed (FIG. 2; the upper panel). The photographed PVDF membrane was washed with PBS-T, photosensitized on imaging plate TR-2040 for 7 days, and the amount of ^3H bound to the expressed protein was measured using BAS-2500 (FUJIFILM Corporation).

[2] = target: T2, TLR4 (wild-type and point mutants, TLR4 C747A) (Homo sapiens, UniProt O00206); experiment: as above; parameters: expressed in transfected cells; conditions: concluded from mutant binding, COS-7 cells (FIG. 2)
T2 sequence (O00206 24-839 C747A): as above
Source text: as §1, §2, §3

GST-TIRAP fusion protein = target: T3, GST-TIRAP fusion protein (Homo sapiens, UniProt P58753); experiment: Pull-down of GST fusion protein-bound beads with ^3H-compound A, SDS-PAGE, autoradiography; format: binding; conditions: beads reacted at 4° C. overnight; autoradiography (FIG. 1B)
T3 construct: made in house; host or cells: Escherichia coli
T3 sequence (P58753 1-235 isoform P58753-2): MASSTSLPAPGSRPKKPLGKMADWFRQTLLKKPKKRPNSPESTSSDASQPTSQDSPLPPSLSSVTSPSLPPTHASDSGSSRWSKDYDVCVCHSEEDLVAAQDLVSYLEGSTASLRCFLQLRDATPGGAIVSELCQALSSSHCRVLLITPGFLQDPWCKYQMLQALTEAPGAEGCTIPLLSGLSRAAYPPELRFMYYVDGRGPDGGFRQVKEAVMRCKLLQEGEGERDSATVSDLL
Method: (§4) Using the above-mentioned primer DNA and TAKARA Ex Taq and after first standing at 95° C. for 2 min in a thermal cycler, PCR was performed 30 cycles with 95° C. for 30 sec, at 55° C. for 30 sec and at 72° C. for 1 min as one cycle. Lastly, an elongation reaction was performed at 72° C. for 10 min. The amplified DNA fragment was cloned using a TA Cloning Kit (Invitrogen). The obtained plasmid vector was treated with a restriction enzyme and electrophoresed on agarose gel. The band was cleaved out using a Sephaglas B and Prep Kit (Amersham) and purified. This was inserted as an insert into vector plasmid pGEX-4T-1 (Amersham) using DNA ligation kit Ver.2 (TAKARA).
(§5) Escherichia coli was transformed with the completed plasmid, and cultured in LB medium containing ampicillin (10 mL) at 37° C. for 18 hr. Culture medium (2.4 mL) was inoculated to LB medium containing ampicillin (130 mL), and subjected to shaking culture. When OD600 became amount 0.9, isopropyl-β-D-thiogalactopyranoside (1 mol/L) was added (130 μL), and the mixture was cultivated at 30° C. for 4 hr. After cultivation, the cells were collected and 10 mL of Lysis Buffer (10 mmol/L Tris pH 7.5, […], 0.5% triton-X-100, 1 mmolp/L PMSF) was added. The cells were disrupted by ultrasonication and centrifuged. To the obtained supernatant was added Glutathione Sepharose 4B (Amersham, 300 μL), and the mixture was gently shaken at 4° C. for 60 min. After the reaction, GST fusion protein-bound beads were washed with TBS (Tris buffered saline, 50 mM Tris-HCl pH7.5, 150 mM NaCl) added with 0.1% Triton X-100.
(§6) The completed GST fusion protein-bound beads and ^3H-compound A (synthesized by Amersham) were reacted at 4° C. overnight. After the reaction, the beads were washed with 0.1% Triton X-100 added TBS, a sample buffer for 5% 2-mercaptoethanol (ME)-containing sodium dodecyl sulfate (SDS)-polyacrylamide gel electrophoresis (PAGE) was added, and the mixture was heated at 100° C. for 5-10 min. The mixture was centrifuged, the supernatant was separated as a labeled protein sample, and the protein was separated by SDS-PAGE. […]

[3] = target: T4, GST-TLR4 intracellular TIR domain fusion protein (Homo sapiens, UniProt O00206); experiment: as above; format: binding; conditions: beads reacted at 4° C. overnight; autoradiography (FIG. 1B)
T4 construct: made in house; host or cells: Escherichia coli
T4 sequence (O00206 674-839): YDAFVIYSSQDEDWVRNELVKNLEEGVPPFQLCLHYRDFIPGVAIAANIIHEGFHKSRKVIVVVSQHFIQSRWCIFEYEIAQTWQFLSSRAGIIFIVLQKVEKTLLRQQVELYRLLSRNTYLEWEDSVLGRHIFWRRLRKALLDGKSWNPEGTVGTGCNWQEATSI
Method: as §4, §5, §6

[4] = target: T5, GST-TLR2 intracellular TIR domain fusion protein (Homo sapiens, UniProt O60603); experiment: as above; format: binding; conditions: beads reacted at 4° C. overnight; autoradiography (FIG. 1B)
T5 construct: GST and TIR domain of TLR2; made in house; host or cells: Escherichia coli
T5 sequence (O60603 639-782 limits assumed): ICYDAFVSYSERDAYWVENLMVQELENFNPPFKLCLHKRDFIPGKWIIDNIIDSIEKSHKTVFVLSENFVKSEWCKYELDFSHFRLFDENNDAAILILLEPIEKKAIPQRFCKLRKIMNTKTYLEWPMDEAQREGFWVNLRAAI
Method: as §4, §5, §6

[5] = target: T1, TLR4 (wild-type and point mutants, TLR4 C747A); experiment: NF-κB luciferase reporter assay in HEK293 cells expressing wild-type or mutant TLR4 after LPS stimulation; format: cell-based; parameters: expressed in transfected cells; host or cells: HEK293 (human embryonic kidney); conditions: 0, 30, 100, 300 nmol/L, 2 hr, then LPS 100 ng/mL 4 hr; HEK293; FL/RL ratio; only this mutant (FIG. 3)
Method: (§7) Human embryonic kidney-derived HEK293 was suspended in DMEM containing 10% FCS, plated in a 96 well plate at 2×10^4 cells/well and cultured overnight at 37° C., 5% CO2. The medium was changed to OPTI-MEM (Invitrogen, 50 μL/well) immediately before transfection. A plasmid encoding FLAG-TLR4WT or a mutant thereof (0CA-3CA, PH, 1KR-9KR) was added to 0.5 ng/well, and transfection was performed using a PLUS reagent (Invitrogen) or a LipofectAMINE reagent (Invitrogen) according to a conventional method. The cells were cultured at 37° C., 5% CO2 for 3 hr. After culture, DMEM containing 20% FCS was added to 100 μL/well, and the cells were further cultured overnight to give forced expression cells. As common DNAs, pNiFty (plasmid for NF-κB activation measurement, 15 ng/well), phRL-TK (internal standard plasmid, 15 ng/well), MD-2 plasmid (10 ng/well) and CD14 plasmid (10 ng/well) were transfected together with wild-type TLR4 and each mutant.
(§8) The next day of the transfection, the medium of the forced expression cells was changed to DMEM containing 1% FCS, compound A (ethyl (6R)-6-[N-(2-chloro-4-fluorophenyl)sulfamoyl]-1-cyclohexene-1-carboxylate), compound B (d-ethyl 6-[N-(2,4-difluorophenyl)sulfamoyl]-1-cyclohexene-1-carboxylate), compound C (ethyl 6-[N-(2-bromo-4-fluorophenyl)sulfamoyl]-1-cyclohexene-1-carboxylate), compound D (d-ethyl 6-[(2-chloro-4-fluorobenzyl)sulfonyl]-1-cyclohexene-1-carboxylate) were added to the final concentration of 0, 30, 100, 300 nmol/L and the cells were cultured for 2 hr at 37° C., 5% CO2. LPS was added to 100 ng/mL, and the cells were further cultured for 4 hr. After culture, the luminescence of luciferase was measured using Dual-Glo™ Luciferase Assay System (Promega). For the measurement, the luminescence of firefly luciferase (derived from FL, NF-κB activation) and renilla luciferase (RL, internal standard) was measured, and CPS (counts per second) of FL was amended by CPS of RL to give FL/RL ratio.

[6] = target: T2, TLR4 (wild-type and point mutants, TLR4 C747A); experiment: as above; format: cell-based; parameters: expressed in transfected cells; host or cells: HEK293 (human embryonic kidney); conditions: concluded from reporter assay with TLR4 mutants, HEK293 (FIG. 3)
Method: as §7, §8

Structure (SMILES)	binding amount of ^3H-compound A to TLR4 with 747th cysteine mutated to alanine [1]	binding site of compound A in TLR4 [2]	binding of ^3H-compound A to GST-TIRAP fusion protein (GST-TIRAP fusion protein)	binding of ^3H-compound A to GST-TLR4 intracellular TIR domain fusion protein [3]	binding of ^3H-compound A to GST-TLR2 intracellular TIR domain fusion protein [4]	signal suppressing action when 747th cysteine of TLR4 mutated to alanine [5]	binding site in TLR4 through which the signal is suppressed [6]
CCOC(=O)C1=CCCC[C@H]1S(=O)(=O)Nc1ccc(F)cc1Cl [compound A, ethyl (6R)-6-[N-(2-chloro-4-fluorophenyl)sulfamoyl]-1-cyclohexene-1-carboxylate]	remarkably decreased	selectively bound to the 747th cysteine	not bound	selectively bound	not bound	disappeared	selectively bind to the 747th cysteine
CCOC(=O)C1=CCCCC1S(=O)(=O)Cc1ccc(F)cc1Cl (stereo not drawn) [compound D, d-ethyl 6-[(2-chloro-4-fluorobenzyl)sulfonyl]-1-cyclohexene-1-carboxylate]	–	–	–	–	–	disappeared	selectively bind to the 747th cysteine
CCOC(=O)C1=CCCCC1S(=O)(=O)Nc1ccc(F)cc1F (stereo not drawn) [compound B, d-ethyl 6-[N-(2,4-difluorophenyl)sulfamoyl]-1-cyclohexene-1-carboxylate]	–	–	–	–	–	disappeared	selectively bind to the 747th cysteine
CCOC(=O)C1=CCCCC1S(=O)(=O)Nc1ccc(F)cc1Br (stereo not shown) [compound C, ethyl 6-[N-(2-bromo-4-fluorophenyl)sulfamoyl]-1-cyclohexene-1-carboxylate]	–	–	–	–	–	disappeared	selectively bind to the 747th cysteine
